Structures can show the parent of a compound that is named as a salt.
Columns and labels:
JH2 domain of human Tyk2 = biological target: T1, JH2 domain of human Tyk2 (Homo sapiens, UniProt P29597); assay: JH2 biochemical assay (TR-FRET probe displacement); type: binding
T1 construct: 10×His-tagged TYK2 JH2 domain (amino acid 575-876)
Outline: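 A probe-displacement TR-FRET readout: compounds, tested in 3-fold, 10-point dilutions starting at […], compete with 2 nM tracer for 2 nM His-tagged JH2 (residues 575-876) detected by 0.1 nM Tb-anti-His over 60 min. IC50 comes from 4-parameter fits of normalized 520/495 nm ratios.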

[1] = system: JAK1 kinase activity on STAT3; assay: pSTAT3 cell assay (MSD, TF1 cells, IL-6 stimulated); type: cell-based; details: Homo sapiens, TF-1, compounds 1 hour, 30 ng/mL IL-6 for 15 minutes
Method: The inhibitory potency of compounds of the disclosure against the JAK1 kinase activity on STAT3 was evaluated using an MSD-platform plate-based assay format. TF1 cells natively expressing STAT3 and JAK1 were serum-starved to reduce background phosphorylation levels, then cells were treated with compounds of the disclosure for 1 hour with a 10-point four-fold dilution series starting at 10 μM. Cells were then stimulated with 30 ng/mL interleukin 6 (IL-6) for 15 minutes. Cells were lysed and pSTAT3 levels were quantitated using an MSD plate-based assay with anti-STAT3 antibodies. The data were normalized and the percent activity versus log concentration of compound was fitted with a 4-parameter logistic model to generate IC50 curves.

[2] = system: Tyk2 kinase activity on STAT4; assay: pSTAT4 cell assay (MSD, NK92 cells); type: cell-based; details: compounds 1 hr
Outline: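 Read-out: phospho-STAT in NK92 lysates, MSD format, anti-STAT4 antibodies. Cells were serum-starved, given compound for 1 hr (10 μM top, four-fold, 10 points) and IL2-stimulated (30 ng/mL, 15 min). Normalized percent activity vs log concentration, 4-parameter logistic fit gave IC50.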

[3] = system: JAK2 kinase activity on STAT5; assay: pSTAT5 cell assay (MSD, TF1 cells, IL-3 stimulated); type: cell-based; details: Homo sapiens, TF-1, compounds 1 hour, 30 ng/mL IL-3 for 15 minutes
Method: Compounds of the disclosure were assessed for their ability to inhibit the JAK2 kinase activity on STAT5 utilizing an MSD-platform plate-based assay format. TF1 cells natively expressing STAT5 and JAK2 were serum-starved to reduce background phosphorylation levels, then cells were treated with compounds of disclosure for 1 hour with a 10-point four-fold dilution series starting at 10 μM. Cells were then stimulated with 30 ng/mL IL-3 for 15 minutes. Cells were then lysed and pSTAT5 levels were quantitated using an MSD plate-based assay with anti-STAT5 antibodies. The data were normalized and the percent activity versus log concentration of compound was fitted with a 4-parameter logistic model to generate a curve and an IC50 value.

T1 sequence (P29597 575-876): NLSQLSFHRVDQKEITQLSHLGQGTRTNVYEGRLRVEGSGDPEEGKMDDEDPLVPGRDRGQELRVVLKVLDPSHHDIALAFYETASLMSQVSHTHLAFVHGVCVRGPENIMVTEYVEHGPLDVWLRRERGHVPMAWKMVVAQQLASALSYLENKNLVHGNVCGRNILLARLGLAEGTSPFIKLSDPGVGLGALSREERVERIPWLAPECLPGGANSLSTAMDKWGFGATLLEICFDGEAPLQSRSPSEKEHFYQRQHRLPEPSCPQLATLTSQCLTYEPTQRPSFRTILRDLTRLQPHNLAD

| Structure (SMILES) | IC50 (JH2 domain of human Tyk2; JH2 biochemical assay) | IC50 [1] | IC50 ([2]; stimulated 15 minutes) | IC50 [3] | IC50 (JH2 domain of human Tyk2; TR-FRET probe displacement, JH2 domain of human Tyk2) | IC50 ([2]; then stimulated 15 minutes) |
| --- | --- | --- | --- | --- | --- | --- |
| COc1cc(N2CC3(CC3)c3cnc(NC(C)=O)cc32)nc(C(C)(F)F)c1 [Example 9, N-(1′-(6-(1,1-difluoroethyl)-4-methoxypyridin-2-yl)-1′,2′-dihydrospiro[cyclopropane-1,3′-pyrrolo[3,2-c]pyridin]-6′-yl)acetamide] | ≤ 10 nM | ≥ 1000 nM | 10 to 100 nM | ≥ 1000 nM |  |  |
| CC(=O)Nc1cc2c(cn1)C1(CC1)CN2c1cccc(C(C)(F)F)n1 [Example 12, N-(1′-(6-(1,1-difluoroethyl)pyridin-2-yl)-1′,2′-dihydrospiro[cyclopropane-1,3′-pyrrolo[3,2-c]pyridin]-6′-yl)acetamide] | ≤ 10 nM | ≥ 1000 nM | 10 to 100 nM | ≥ 1000 nM |  |  |
| CC(=O)Nc1cc2c(cn1)C1(CC1)CN2c1cccc(C2COC2)n1 [Example 84, N-(1′-(6-(oxetan-3-yl)pyridin-2-yl)-1′,2′-dihydrospiro[cyclopropane-1,3′-pyrrolo[3,2-c]pyridin]-6′-yl)acetamide] | 10 to 100 nM | ≥ 1000 nM | ≥ 1000 nM | ≥ 1000 nM |  |  |
| CC(=O)Nc1cc2c(cn1)C1(CCN(C)CC1)CN2c1nccc(C(C)(F)F)n1 [Example 274, N-(1′-(4-(1,1-difluoroethyl)pyrimidin-2-yl)-1-methyl-1′,2′-dihydrospiro[piperidine-4,3′-pyrrolo[3,2-c]pyridin]-6′-yl)acetamide trifluorocetate] | 100 to 1000 nM | ≥ 1000 nM | ≥ 1000 nM | ≥ 1000 nM |  |  |
| CNC(=O)Nc1cc2c(cn1)C1(CC1)CN2c1cc(C)nc(C(C)(F)F)n1 [Example 307, 1-(1′-(2-(1,1-difluoroethyl)-6-methylpyrimidin-4-yl)-1′,2′-dihydrospiro[cyclopropane-1,3′-pyrrolo[3,2-c]pyridin]-6′-yl)-3-methylurea] | ≤ 10 nM | ≥ 1000 nM | 10 to 100 nM | ≥ 1000 nM |  |  |
| CC(=O)Nc1cc2c(cn1)C1(CCN(C)CC1)CN2c1cccc(C(C)(F)F)n1 [Example 276, N-(1′-(6-(1,1-difluoroethyl)pyridin-2-yl)-1-methyl-1′,2′-dihydrospiro[piperidine-4,3′-pyrrolo[3,2-c]pyridin]-6′-yl)acetamide trifluoroacetate] | ≥ 1000 nM | ≥ 1000 nM |  | ≥ 1000 nM |  |  |
| CC(=O)Nc1cc2c(cn1)C1(CC1)CN2c1ccnc(C(C)(C)F)n1 [Example 17, N-(1′-(2-(2-fluoropropan-2-yl)pyrimidin-4-yl)-1′,2′-dihydrospiro[cyclopropane-1,3′-pyrrolo[3,2-c]pyridin]-6′-yl)acetamide] | ≤ 10 nM | ≥ 1000 nM | 100 to 1000 nM | ≥ 1000 nM |  |  |
| CC(=O)Nc1cc2c(cn1)C1(CC1)CN2c1cccc(C2(F)COC2)n1 [Example 85, N-(1′-(6-(3-fluorooxetan-3-yl)pyridin-2-yl)-1′,2′-dihydrospiro[cyclopropane-1,3′-pyrrolo[3,2-c]pyridin]-6′-yl)acetamide] | 10 to 100 nM | ≥ 1000 nM | ≥ 1000 nM | ≥ 1000 nM |  |  |
| CC(=O)Nc1cc2c(cn1)C1(CC1)CN2c1cc(C2CC2)nc(C(C)(F)F)n1 [Example 21, N-(1′-(6-cyclopropyl-2-(1,1-difluoroethyl)pyrimidin-4-yl)-1′,2′-dihydrospiro[cyclopropane-1,3′-pyrrolo[3,2-c]pyridin]-6′-yl)acetamide] | ≤ 10 nM | ≥ 1000 nM | 10 to 100 nM | ≥ 1000 nM |  |  |
| CC(=O)Nc1cc2c(cn1)C(C)(C)CN2c1cccc(C(C)(F)F)n1 [Example 76, N-(1-(6-(1,1-difluoroethyl)pyridin-2-yl)-3,3-dimethyl-2,3-dihydro-1H-pyrrolo[3,2-c]pyridin-6-yl)acetamide trifluoroacetate] | 100 to 1000 nM | ≥ 1000 nM | ≥ 1000 nM | ≥ 1000 nM |  |  |
| CCn1cc(-c2cc(N3CC4(CC4)c4cnc(NC(C)=O)cc43)nc(C(C)(F)F)n2)cn1 [Example 384, N-(1′-(2-(1,1-difluoroethyl)-6-(1-ethyl-1H-pyrazol-4-yl)pyrimidin-4-yl)-1′,2′-dihydrospiro[cyclopropane-1,3′-pyrrolo[3,2-c]pyridin]-6′-yl)acetamide trifluoroacetate] |  | ≥ 1000 nM |  | ≥ 1000 nM | ≤ 10 nM | 10 to 100 nM |
| CCc1cc(N2CC3(CC3)c3cnc(NC(C)=O)cc32)nc(C23COC(C2)C3)n1 [Example 322, N-(1′-(2-(2-oxabicyclo[2.1.1]hexan-4-yl)-6-ethylpyrimidin-4-yl)-1′,2′-dihydrospiro[cyclopropane-1,3′-pyrrolo[3,2-c]pyridin]-6′-yl)acetamide] | ≤ 10 nM | ≥ 1000 nM | 10 to 100 nM | ≥ 1000 nM |  |  |
| CC(=O)Nc1cc2c(cn1)C1(CCN(C)CC1)CN2c1ccnc(C(C)(F)F)n1 [Example 275, N-(1′-(2-(1,1-difluoroethyl)pyrimidin-4-yl)-1-methyl-1′,2′-dihydrospiro[piperidine-4,3′-pyrrolo[3,2-c]pyridin]-6′-yl)acetamide trifluoroacetate] | ≥ 1000 nM | ≥ 1000 nM | ≥ 1000 nM | ≥ 1000 nM |  |  |
| CNc1cc(N2CC3(CC3)c3cnc(NC(C)=O)cc32)nc(C(C)(F)F)n1 [Example 10, N-(1′-(2-(1,1-difluoroethyl)-6-(methylamino)pyrimidin-4-yl)-1′,2′-dihydrospiro[cyclopropane-1,3′-pyrrolo[3,2-c]pyridin]-6′-yl)acetamide] | ≤ 10 nM | ≥ 1000 nM | 10 to 100 nM | ≥ 1000 nM |  |  |
| CC(=O)Nc1cc2c(cn1)C1(CC1)CN2c1nccc(C(C)(F)F)n1 [Example 14, N-(1′-(4-(1,1-difluoroethyl)pyrimidin-2-yl)-1′,2′-dihydrospiro[cyclopropane-1,3′-pyrrolo[3,2-c]pyridin]-6′-yl)acetamide] | 10 to 100 nM | ≥ 1000 nM | 100 to 1000 nM | ≥ 1000 nM |  |  |
| COc1cc(N2CC3(CC3)c3cnc(NC(C)=O)cc32)nc(C(C)(F)F)n1 [Example 1, N-(1′-(2-(1,1-difluoroethyl)-6-methoxypyrimidin-4-yl)-1′,2′-dihydrospiro[cyclopropane-1,3′-pyrrolo[3,2-c]pyridin]-6′-yl)acetamide] | ≤ 10 nM | ≥ 1000 nM | 100 to 1000 nM | ≥ 1000 nM |  |  |
| Cc1cc(N2CC3(CC3)c3cnc(NC(N)=O)cc32)nc(C(C)(F)F)n1 [Example 308, 1-(1′-(2-(1,1-difluoroethyl)-6-methylpyrimidin-4-yl)-1′,2′-dihydrospiro[cyclopropane-1,3′-pyrrolo[3,2-c]pyridin]-6′-yl)urea] | ≤ 10 nM | ≥ 1000 nM | ≤ 10 nM | ≥ 1000 nM |  |  |
| COc1cc(C(C)(F)F)nc(N2CC3(CC3)c3cnc(NC(C)=O)cc32)n1 [Example 2, N-(1′-(4-(1,1-difluoroethyl)-6-methoxypyrimidin-2-yl)-1′,2′-dihydrospiro[cyclopropane-1,3′-pyrrolo[3,2-c]pyridin]-6′-yl)acetamide] | ≤ 10 nM | ≥ 1000 nM | 100 to 1000 nM | ≥ 1000 nM |  |  |
| COC1(c2cccc(N3CC4(CC4)c4cnc(NC(C)=O)cc43)n2)CCOC1 (centres unmarked) [Example 18, N-(1′-(6-(3-methoxytetrahydrofuran-3-yl)pyridin-2-y1)-1′,2′-dihydrospiro[cyclopropane-1,3′-pyrrolo[3,2-c]pyridin]-6′-yl)acetamide] | ≤ 10 nM | ≥ 1000 nM | 10 to 100 nM | ≥ 1000 nM |  |  |
| COCCNc1cc(N2CC3(CC3)c3cnc(NC(C)=O)cc32)nc(C(C)(F)F)n1 [Example 49, N-(1′-(2-(1,1-difluoroethyl)-6-((2-methoxyethyl)amino)pyrimidin-4-yl)-1′,2′-dihydrospiro[cyclopropane-1,3'-pyrrolo[3,2-c]pyridin]-6'-yl)acetamide] | ≤ 10 nM | ≥ 1000 nM | 10 to 100 nM | ≥ 1000 nM |  |  |
| CC(=O)Nc1cc2c(cn1)C1(CCC1)CN2c1ccnc(C(C)(F)F)n1 [Example 41, N-(1′-(2-(1,1-difluoroethyl)pyrimidin-4-yl)-1′,2′-dihydrospiro[cyclobutane-1,3′-pyrrolo[3,2-c]pyridin]-6′-yl)acetamide] | 10 to 100 nM | ≥ 1000 nM | ≥ 1000 nM | ≥ 1000 nM |  |  |

Source: patent US20260258032A1, “TYROSINE KINASE 2 INHIBITORS AND USES THEREOF” (BIOGEN MA INC., priority 2022, published 2026)
